Reference: patent US20080227684A1, “Small Molecule Inhibitors of PDZ Interactions” (priority 2005, published 2008)

Tests used:
Test in all cases: Matrix modified G-assay, small molecule competition titration
[1] = molecular target: T1, Magi1 d1 (Homo sapiens, UniProt Q96QZ7); conditions: competition with biotinylated PL peptide at GST-PDZ fusion protein; read-out: IC50 Magi1 d1 (relative binding affinity by titration analysis)
T1 construct: made in house
Method: (§1) Small Molecule Competition Assay. The reagents, supplies and protocol are as follows:
(§2) Reagents and Supplies: • (1) Nunc Maxisorp 96 well Immuno-plates • (2) PBS pH 7.4 (phosphate buffered saline, 8 g NaCl, 0.29 g KCl, 1.44 g Na2HPO4, 0.24 g • (3) KH2PO4, add H2O to 1 L and pH 7.4; 0.2μ filter) • (4) Assay Buffer: 2% BSA in PBS (20 g of BSA per liter PBS), ICN Biomedicals • (5) Goat anti-GST polyclonal antibody, stock 5 mg/ml, stored at 4° C., (Amersham Pharmacia); Diluted 1:1000 in PBS to a final concentration 5 μg/ml • (6) HRP-Streptavidin, 2.5 mg/2 ml stock stored @ 4° C., Zymed,- dilute 1:2000 into Assay buffer, final [0.5 μg/ml] • (7) Biotinylated peptides (from Anaspec, stored in −20° C. freezer) • (8) GST-PRISM proteins (stock stored @ −80° C., after 1st thaw store in −10° C. freezer) • (9) TMB (3,3′,5,5′, teramethylbensidine), ready to use • (10) 0.18M H2SO4 • (11) 12-w multichannel pipettor • (12) 200 μl LTS tips • (13) 50 ml reagent reservoirs • (14) 50 polypropylene conical tubes • (15) 15 ml polypropylene round-bottom tubes • (16) 1.5 ml microtubes • (17) Molecular Devices microplate reader (450 nm filters) • (18) SoftMax Pro software • (19) Assay buffer (1×PBS, 0.01% Triton X-100)
(§3) Protocol. The wells of eighteen to twenty 96-well plates were coated with 100 μl of 5 μg/ml anti-GST antibody (in each well), and left overnight at 4° C. The plates were then emptied by inverting and tapped dry on paper towels. 200 μl of blocking buffer (1×PBS/2% BSA) was added to each well and the plates were left for 1-2 hrs at room temperature. […] GST-PDZ fusion proteins were diluted to a final concentration of 5 μg/ml in 1×PBS/2% BSA and 50 μl was added to each well. After incubating for 1-2 hours at 4° C. excess unbound fusion protein was removed by washing, i.e., using the automatic plate washer (3× with room temperature 1×PBS).
(§4) PDZ ligand peptides, small molecule test compounds, and HRP were prepared in Assay Buffer as follows: • Biotinylated PDZ ligand synthetic peptides were prepared in one-quarter final volume, i.e., at 4× final concentration; • Steptavidin-HRP conjugate (Zymed) was diluted (1:500) in one-quarter final volume, i.e., at 4× final concentration; • Biotinylated peptides and Streptavidin-HRP were then mixed together, and incubated for 20 min at room temperature to form a signal generating peptide ligand complex; • While the peptide/HRP mix was incubating, test compound dilutions were prepared in half the final volume, i.e., at 2× final concentration; and, • Immediately before adding the final peptide ligand complex mixture to the plate, the drug titration was added to give a mixture with 1× concentrations and the final correct total volume. The signal generating peptide ligand/test compound mixtures were then added to each well of the plates to give 50 μl per well and the time of each addition was recorded. The plates were then incubated at room temperature, after the last peptide had been added, for exactly 30 min. After incubation, the plates were washed using the automatic plate washer (7× with room temperature 1×PBS). To detect the signal generating peptide ligand TMB substrate (for HRP) was added to each well of the plates at 100 μl per well and the time of TMB addition was recorded. The plates were then incubated in the dark at room temperature for a maximum of 30 min. The calorimetric reaction was then stopped using 100 μl of 0.18M H2SO4 30 minutes after adding TMB. The signal in each well of the plates were then determined by measuring the optical density at 450 nm.
(§5) The relative binding affinities of the compounds in FIG. 2A, and other, small molecule inhibitors were determined by titrating the compounds in the same competitive binding assay.

[2] = molecular target: T2, Tip1 (Homo sapiens, UniProt O14907); conditions: competition with biotinylated PL peptide at GST-PDZ fusion protein; read-out: IC50 Tip1 (relative binding affinity by titration analysis)
T2 construct: made in house
T2 sequence (O14907 15-112 limits assumed): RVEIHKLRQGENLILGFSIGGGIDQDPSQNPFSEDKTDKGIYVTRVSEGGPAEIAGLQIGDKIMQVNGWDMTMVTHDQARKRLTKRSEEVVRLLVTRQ
Method: as §1, §2, §3, §4, §5

[3] = molecular target: T3, PSD95 d2 (Homo sapiens, UniProt P78352); conditions: competition with biotinylated PL peptide at GST-PDZ fusion protein; read-out: IC50 PSD95 d2 (relative binding affinity by titration analysis)
T3 construct: made in house
Method: as §1, §2, §3, §4, §5

[4] = molecular target: T4, PSD95 d1 (Homo sapiens, UniProt P78352); conditions: competition with biotinylated PL peptide at GST-PDZ fusion protein; read-out: IC50 PSD95 d1 (relative binding affinity by titration analysis)
T4 construct: made in house
Method: as §1, §2, §3, §4, §5

[5] = molecular target: T5, PSD95 d3 (Homo sapiens, UniProt P78352); conditions: competition with biotinylated PL peptide at GST-PDZ fusion protein; read-out: IC50 PSD95 d3 (relative binding affinity by titration analysis)
T5 construct: made in house
Method: as §1, §2, §3, §4, §5

[6] = molecular target: T6, Shank 1 (Homo sapiens, UniProt Q9Y566); conditions: competition with biotinylated PL peptide at GST-PDZ fusion protein; read-out: IC50 Shank 1 (relative binding affinity by titration analysis)
T6 construct: made in house
T6 sequence (Q9Y566 663-757 limits assumed): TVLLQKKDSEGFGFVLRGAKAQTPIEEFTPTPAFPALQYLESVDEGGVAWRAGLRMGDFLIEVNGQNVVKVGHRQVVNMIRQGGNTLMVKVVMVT
Method: as §1, §2, §3, §4, §5

T1 sequence (Q96QZ7 472-554 limits assumed): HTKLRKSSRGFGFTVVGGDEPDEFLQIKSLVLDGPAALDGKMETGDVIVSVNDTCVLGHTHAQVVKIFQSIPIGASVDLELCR

SMILES	IC50 [1]	IC50 [2]	IC50 [3]	IC50 [4]	IC50 [5]	IC50 [6]
CCOc1ccc(NS(=O)(=O)c2cccc(C(=O)Nc3ccccc3C(=O)O)c2)cc1 [Compound 3019-0348]	> 250 µM	> 250 µM	> 250 µM	> 250 µM	> 250 µM	> 250 µM
O=C(Nc1ccccc1C(=O)O)c1cccc(NC(=O)C(c2ccccc2)c2ccccc2)c1 [Compound 3289-2331]	130 µM	> 250 µM	> 250 µM	> 250 µM	> 250 µM	> 250 µM
O=C(NCCO)C(=O)Nc1ccccc1C(=O)O [MC 247808]	> 250 µM	> 250 µM	221 µM	> 250 µM	> 250 µM	> 250 µM

Now from value to molecule:

IC50 [1]	IC50 [2]	IC50 [3]	IC50 [4]	IC50 [5]	IC50 [6]	SMILES
> 250 µM	> 250 µM	> 250 µM	> 250 µM	> 250 µM	> 250 µM	CCOc1ccc(NS(=O)(=O)c2cc(C(=O)Nc3ccccc3C(=O)O)ccc2C)cc1 [Compound 3558-0042]
> 250 µM	> 250 µM	> 250 µM	> 250 µM	> 250 µM	> 250 µM	Cc1ccc([N+](=O)[O-])cc1NC(=O)c1cc(S(=O)(=O)Nc2cccc(C(=O)O)c2)c(Cl)cc1Cl [Compound 8009-5039]
> 250 µM	> 250 µM	> 250 µM	206 µM	> 250 µM	> 250 µM	CC(=O)N1CCc2cc(S(=O)(=O)NC(Cc3ccccc3)C(=O)Nc3ccccc3C(=O)O)ccc21 (stereo not drawn) [Compound C450-0454]
60.8 µM	> 250 µM	4.98 µM	2.5 µM	3.47 µM	7.59 µM	COc1cccc(-c2nc3c(c(SCC(=O)Nc4cccc(C(=O)O)c4)n2)Cc2c(CO)cnc(C)c2O3)c1 [Compound E544-0129]
